The test system of data set [1] is GSK-3 -phosphorylated β-catenin. As to the kind of experiment: β-catenin phosphorylation at GSK-3 sites in SH-SY5Y cells. The class given is cell-based, human. To be noted: 6 h, 10 μM or dose-response, 2 μM MG132.
In another data set the target is CDK1/cyclin B. As to the kind of experiment: CDK1/cyclin B kinase assay. The class given is biochemical, starfish (Marthasterias glacialis). To be noted: read-out: CDK1 IC50, 15 μM ATP.
The target of the next data set is GSK-3α/β. Briefly: GSK-3α/β kinase assay. The class given is biochemical, porcine. The note with it: for pIC50: read-out: GSK3 IC50, GSK-3α/β, 15 μM ATP, from dose-response curves.
Data set [2] in a line: Equilibrium water solubility. The class given is physicochemical.
Data set [3] relates to Rat-1 fibroblasts. The note with it: lithium 10-20 mM, mammalian cells; cited from earlier work.
Data set [4] has as its system Rat-1 fibroblasts. Briefly: Luminescence assay of circadian rhythmicity, PPer2::Fluc reporter. The class given is cell-based. The note with it: 10 μM, Rat-1 PPer2::Fluc, monitored 4 days.

For orientation: pIC50 means the negative decadic logarithm of the IC50, by convention in mol/L. What is called solubility is the concentration that dissolves in the medium under given conditions. A higher solubility goes with a readily soluble substance.

pIC50: −log10 of the molar value. Structures can show the parent of a compound that is named as a salt.

Consider `O=C1Nc2cc(Br)ccc2/C1=C1/Nc2ccccc2/C1=N\OCCN(CCO)CCO` [Compound 9], for which the “inhibition of β-catenin phosphorylation at GSK-3 specific sites” value (“inhibition of β-catenin phosphorylation” for short) in data set [1] is on record as “most efficient”.

`O=C1Nc2cc(Br)ccc2/C1=C1/Nc2ccccc2/C1=N\OCCN1CCCC1` [Compound 18, (2′Z-3′E)-6-Bromoindirubin-3′-[O-(2-pyrrolidin-1-ylethyl)oxime] Hydrochloride]: on CDK1/cyclin B, the pIC50 was 6.35. As to `CN(C)CCO/N=C1/C(=C2/C(=O)Nc3cc(Br)ccc32)Nc2ccccc21` [Compound 5, (2′Z-3′E)-6-Bromoindirubin-3′-[O-(2-dimethylaminoethyl)-oxime]], the “inhibition of β-catenin phosphorylation” value in data set [1] is given as “most efficient”. Take `CN(CCON=C1C(=C2C(=O)Nc3cc(Br)ccc32)Nc2ccccc21)CC(O)CO.Cl` (stereo not drawn) [Compound 21, (2Z-3′E)-6-Bromoindirubin-3′-(O-{2-[N-methyl, N-(2,3-dihydroxypropyl)amino]ethyl}oxime] Hydrochloride]: the values for the pIC50 at GSK-3α/β and at CDK1/cyclin B were 7.64 and 6.82, respectively. Further, the solubility in data set [2] (double distilled water) was 1450 µg/mL. Take `O=C1Nc2cc(Br)ccc2/C1=C1/Nc2ccccc2/C1=N\OCC(O)CO` (stereo not drawn) [Compound 3, (2′Z-3′E)-6-Bromoindirubin-3′-[O-(2,3-dihydroxypropyl)-oxime]]: in the data set with GSK-3α/β (relative to 6BIO), the “decrease of activity/affinity on GSK-3 compared to 6BIO” value turned out to be 6 fold. In addition, at CDK1/cyclin B, the pIC50 is 6.96. Further, the “inhibition of β-catenin phosphorylation” value in data set [1] is “most efficient”. Further, in data set [2] (water), the “solubility change versus 6BIO (in words)” value was “mediocre improvement of solubility”. In the case of `CN1CCN(CCO/N=C2/C(=C3/C(=O)Nc4cc(Br)ccc43)Nc3ccccc32)CC1.Cl.Cl` [Compound 23, (2′Z-3′E)-6-Bromoindirubin-3′-{O-[2-(4-methylpiperazin-1-yl)ethyl]oxime} Dihydrochloride], the “inhibition of β-catenin phosphorylation” value in data set [1] was “most efficient”.

As for `O=C1Nc2cc(Br)ccc2/C1=C1/Nc2ccccc2/C1=N\OCCN1CCCC1` [Compound 7, (2′Z-3′E)-6-Bromoindirubin-3′-[O-(2-pyrrolidin-1-ylethyl)oxime]], the pIC50 at CDK1/cyclin B is 6.30. `[Li]` [Lithium]: in the data set on Rat-1 fibroblasts [3], the “effect on circadian period” value is reported as “lengthens the period”.

Turning to `CCN(CC)C(=O)O/N=C1/C(=C2/C(=O)Nc3cc(Br)ccc32)Nc2ccccc21` [Compound 4, (2′Z-3′E)-6-Bromoindirubin-3′-[O-(N,N-diethylcarbamyl)-oxime]], the pIC50 at CDK1/cyclin B is < 5.00. Consider `O=C1Nc2cc(Br)ccc2/C1=C1/Nc2ccccc2/C1=N\OCCO` [Compound 2, (2′Z-3′E)-6-Bromoindirubin-3′-[O-(2-hydroxyethyl)-oxime]], for which the pIC50 at GSK-3α/β was 8.52; on CDK1/cyclin B, < 5.00. Turning to `O=C1Nc2cc(Br)ccc2/C1=C1/Nc2ccccc2/C1=N\OCCN1CCNCC1` [Compound 11, (2′Z-3′E)-6-Bromoindirubin-3′-[O-(2-piperazine-1-ylethyl)oxime]], in data set [1], the “inhibition of β-catenin phosphorylation” value is “most efficient”. The same measure, in the same setting: the same measure for `Cl.O=C1Nc2cc(Br)ccc2/C1=C1/Nc2ccccc2/C1=N\OCCN(CCO)CCO` [Compound 20]: “most efficient”. On the same count and under the same terms, the same measure for `O=C1Nc2cc(Br)ccc2/C1=C1/Nc2ccccc2/C1=N\OCCN1CCN(CCO)CC1` [Compound 13, (2′Z-3′E)-6-Bromoindirubin-3′-(O-{2-[4-(2-hydroxyethyl)piperazin-1-yl]ethyl}oxime)]: “most efficient”; for `CN(C)CCO/N=C1/C(=C2/C(=O)Nc3cc(Br)ccc32)Nc2ccccc21.Cl` [Compound 16, (2′Z-3′E)-6-Bromoindirubin-3′-[O-(2-dimethylaminoethyl)oxime] Hydrochloride]: “most efficient”. Consider `O=C1Nc2cc(Br)ccc2/C1=C1/Nc2ccccc2/C1=N\OCCN1CCN(CCOCCO)CC1` [Compound 26, (2′Z-3′E)-6-Bromoindirubin-3′-[O-(2-{4-[2-(2-hydroxyethoxy)-ethyl]piperazin-1-yl}ethyl)oxime] Dihydrochloride], for which the negative logarithm of the IC50 (pIC50) at CDK1/cyclin B was 6.30. On to `O=C1Nc2cc(Br)ccc2/C1=C1/Nc2ccccc2/C1=N\OCCN1CCN(CCOCCO)CC1` [Compound 15, (2′Z-3′E)-6-Bromoindirubin-3′-[O-(2-{4-[2-(2-hydroxyethoxy)-ethyl]piperazin-1-yl}ethyl)oxime]], for which the “effect on circadian period length” value in the data set with Rat-1 fibroblasts [4] is reported as “gradual shortening of the period length”. Further, the negative logarithm of the IC50 (pIC50) at CDK1/cyclin B was 6.05. Turning to `CN1C(=O)C(=C2Nc3ccccc3C2=NO)c2ccc(Br)cc21` [1-methyl-6BIO, reference compound], the “inhibition of β-catenin phosphorylation” value in data set [1] is listed as “ineffective”. Regarding `O=C1Nc2cc(Br)ccc2/C1=C1/Nc2ccccc2/C1=N\OCCBr` [Compound 1, (2′Z-3′E)-6-Bromoindirubin-3′-[O-(2-bromoethyl)-oxime]], on CDK1/cyclin B, the pIC50 is < 5.00.

Consider `COCCN1CCN(CCO/N=C2/C(=C3/C(=O)Nc4cc(Br)ccc43)Nc3ccccc32)CC1` [Compound 25, (2′Z-3E)-6-Bromoindirubin-3′-(O-{2-[4-(2-methoxyethyl)piperazin-1-yl]ethyl}oxime) Dihydrochloride], for which the pIC50 on CDK1/cyclin B was 6.00. With `CN1CCN(CCO/N=C2/C(=C3/C(=O)Nc4cc(Br)ccc43)Nc3ccccc32)CC1` [Compound 12, (2′Z-3′E)-6-Bromoindirubin-3′-{O-[2-(4-methyl-piperazin-1-yl)ethyl]oxime}], the “selectivity for GSK-3 versus 6BIO” value with GSK-3α/β (GSK-3 over CDKs, compared to 6BIO) is listed as “improved selectivity of one order of magnitude”. The “inhibition of β-catenin phosphorylation” value in data set [1] is listed as “most efficient”. With `Cl.Cl.O=C1Nc2cc(Br)ccc2/C1=C1/Nc2ccccc2/C1=N\OCCN1CCNCC1` [Compound 22, (2′Z-3′E)-6-Bromoindirubin-3′-[O-(2-piperazine-1-ylethyl)oxime] Dihydrochloride], the “inhibition of β-catenin phosphorylation” value in data set [1] was “most efficient”.

`Cl.Cl.O=C1Nc2cc(Br)ccc2/C1=C1/Nc2ccccc2/C1=N\OCCN1CCN(CCO)CC1` [Compound 24, (2′Z-3E)-6-Bromoindirubin-3′-(O-{2-[4-(2-hydroxyethyl)piperazin-1-yl]ethyl}oxime) Dihydrochloride]: the “inhibition of β-catenin phosphorylation” value in data set [1] is “most efficient”.

(Values after article PMC2717725 (Journal of medicinal chemistry, 2008).)
